Experimental data taken from patent US8623331B2, “Compressed chewing gum tablet” (Fertin Pharma A/S, priority 2007, dated 2014).
Entries after “also recorded” stand apart in the source; their conditions may differ.

What was measured:
[1] = Release control, gum base content different with respect to composition (two-module compressed chewing gum tablet); conditions: first layer: NPR outside the gum base granules; second layer: Na2CO3 approx. 50 Wt-% outside and approx. 50 Wt-% incorporated in the granules
Description: (§1) Control of the release was tested for chewing gum tablets comprising two modules with different gum base content and a different active ingredient in each of them.
In this example a gum base content different with respect to composition was investigated. In the first layer the active ingredient (NPR) was added to the chewing gum composition outside the gum base granules and in the second layer the active ingredient (Na2CO3 pH control agent) was added approximately 50 Wt-% to the chewing gum composition outside the gum base granules and approximately 50 Wt-% incorporated in the granules.
To ensure that the result of this example was not due to different API in the two layers, the example was further supplemented with a test with the same amount of a same API incorporated in the granules and added directly to the composition respectively, where it was again seen that the release was dependent on the chewing gum composition

[2] = Release control, gum base content different with respect to weight (two-module compressed chewing gum tablet); conditions: first layer: NPR with a large amount of gum base; second layer: Na2CO3 with a small amount of gum base
Description: as §1
In this example a gum base content different with respect to weight was investigated. In the first layer the active ingredient (NPR) was present with a large amount of gum base and in the second layer the active ingredient (Na2CO3 pH control agent) was present with a small amount of gum base.
To ensure that the result of this example was not due to different API in the two layers, the example was further supplemented with a test with two different weights of the same API in the compositions in the two layers, where it was again seen that the release was dependent on the weight of the gum base content in the chewing gum composition.

[3] = Release control, different size of applied chewing gum granules (two-module compressed chewing gum tablet); conditions: first layer: NPR with granules of relatively smaller average diameter; second layer: Na2CO3 with granules of relatively larger average diameter
Description: as §1
In this example a gum base content different with respect to size of applied chewing gum granules was investigated.
In the first layer the active ingredient (NPR) was present with chewing gum granules with a relatively smaller average diameter and in the second layer the active ingredient (Na2CO3 pH control agent) was present with chewing gum granules with a relatively larger average diameter.
To ensure that the result of this example was not due to different API in the two layers, the example was further supplemented with a test with the same API in two compositions of different chewing gum granule sizes. Here it was again seen that the release was dependent on the size of the chewing gum granules used in the layers of the gum base content in the chewing gum composition.

Structure (SMILES): O=C([O-])[O-].[Na+].[Na+] [Na2CO3]
- release of active ingredient from the chewing gum tablet [1]: fast release of part of the pH control agent; also recorded: slower release of the remaining part of the pH control agent
- release of active ingredient from the chewing gum tablet [2]: faster than the release of the NPR
- release of active ingredient from the chewing gum tablet [3]: faster than the release of the NPR
